Reference: patent publication US10640507B2, “PBD antibacterial agents” (KING'S COLLEGE LONDON, priority 2015, dated 2020)
In brackets after ≈: the same amount, converted by molar mass. Read-outs that look alike come from different tables or passages of the source.

What was measured:
Type in all cases: cell-based
A. baumannii AYE = experiment: General MIC protocol, Gram negative; conditions: Acinetobacter baumannii
Description: (§1) General Minimum Inhibitory Concentration (MIC) Protocol
(§2) 1. Grow up cultures of bacterial strains to be tested overnight.
(§3) 2. Dilute down overnight cultures to concentration of 1×10^6 bacteria/ml (OD0.01) in Tryptic soy broth (TSB).
(§4) 3. Add 100 μl of TSB media to column 2-column 12 in 96 well plate (keeping column 1 clear).
(§5) 4. Make up compound to a concentration of 64 μg/ml in water (or alternatively to twice the chosen maximum concentration to be tested).
(§6) 5. Add 100 μl of antibiotic solution to the 1st and 2nd columns.
(§7) 6. Using a multichannel pipette take 100 μl from the 2nd column wells and pipette into 3rd column wells and repeat down the 96 well plate (remembering to include controls i.e. uninfected media and media with no antibiotic).
(§8) 7. To each well (except uninfected control row H) add 100 μl of bacterially infected media at a concentration of 1×10^6/ml.
(§9) 8. This dilutes down the concentration of the antibiotic by half (top dose is therefore 32 μg/ml in column 1) and also gives you a starting bacterial concentration of 5×10^5/ml.
(§10) 9. Wrap plate with parafilm to prevent evaporation.
(§11) 10. Leave at desired temperature (37° C. unless specified elsewhere) for 20 hours.
(§12) 11. Next day check plates for growth and measure optical density (i.e. absorbance) at a wavelength of 600 nm (OD600).
(§13) An example of such a plate is shown in FIG. 1 where column A represents wells that receive the top dose 100 μl; column B represents wells that receive the top dose 100 μl+100 μl TSB; and column C represents wells that receive 100 μl TSB. Row H which is marked by a box labelled D represents a blank where the cells receive no bacteria.

K. pneumonia M6 = experiment: General MIC protocol, Gram negative; conditions: Klebsiella pneumoniae; KP-M6
Description: as §1, §2, §3, §4, §5, §6, §7, §8, §9, §10, §11, §12, §13

A. baumannii NCTC 17978 = experiment: General MIC protocol, Gram negative; conditions: Acinetobacter baumannii, NCTC17978
Description: as §1, §2, §3, §4, §5, §6, §7, §8, §9, §10, §11, §12, §13

K. pneumonia NCTC 13368 = experiment: General MIC protocol, Gram negative; conditions: Klebsiella pneumoniae, NCTC13368
Description: as §1, §2, §3, §4, §5, §6, §7, §8, §9, §10, §11, §12, §13

P. aeruginosa NCTC 13437 = experiment: General MIC protocol, Gram negative; conditions: Pseudomonas aeruginosa, NCTC13437
Description: as §1, §2, §3, §4, §5, §6, §7, §8, §9, §10, §11, §12, §13

P. aeruginosa PA01 = experiment: General MIC protocol, Gram negative; conditions: Pseudomonas aeruginosa, PA01, PA01
Description: as §1, §2, §3, §4, §5, §6, §7, §8, §9, §10, §11, §12, §13

WI38 (Healthy cell line) = experiment: MTT cytotoxicity assay; conditions: Homo sapiens, read-out: IC50 WI38 (Healthy cell line)
Description: (§14) Two immortalised human cell lines, HeLa and WI38 were used for cytotoxicity screening of the compounds. HeLa is a human cervical cancer cell line and WI38 is a normal healthy cell line. The cell lines were obtained from the American Type Culture Collection. The cell-lines were maintained in monolayer culture in 75 cm2 flasks (TPP, Switzerland) under a humidified 5% CO2 atmosphere at 37° C. The HeLa cell line was maintained in Dulbecco's Modified Eagles Media (DMEM; Invitrogen) supplemented with foetal bovine serum (10% v/v; Invitrogen), L-glutamine (2 mM; Invitrogen), non-essential amino acids (1×; Invitrogen) and Penicillin-Streptomycin (1% v/v, Invitrogen). For WI38, Eagle's Minimum Essential Medium, and Penicillin-Streptomycin (1% v/v, Invitrogen) and foetal bovine serum (10%, nvitrogen) was used. For passaging, cells were washed with phosphate buffered saline [PBS] (GIBCO 14040, Invitrogen, UK), incubated with trypsine (GIBCO 25300, Invitrogen, UK), and re-seeded into fresh medium. For seeding, cells were counted using a Neubauer haemocytometer (Assistant, Germany) by microscopy (Nikon, USA) on a non-adherent suspension of cells that were washed in PBS, trypsinised, centrifuged at 8° C. at 8000 rpm for 5 min and re-suspended in fresh medium.
(§15) The cells were grown in normal cell culture conditions at 37° C. under a 5% CO2 humidified atmosphere using appropriate medium. The cell count was adjusted to 10^5 cells/ml/ and 20,000 cells were added per well. The cells were incubated for 24 hours and 1 μl of the appropriate inhibitor concentrations were to the wells in triplicates. After 24 h of continuous exposure to each compound, the cytotoxicity was determined using the MIT (3-(4,5-Dimethylthiazol-2-yl)-2,5-diphenyltetrazolium bromide) (Lancaster Synthesis Ltd, UK) colorimetric assay. Absorbance was quantified by spectrophotometry at λ=570 nm (Envision Plate Reader, PerkinElmer, USA). IC50 values were calculated by a dose-response analysis using the Prism Graphpad Prism® software. The cytotoxicity results are shown below in Table 12.

[1] = tested on: HeLa (Cervical cancer cell line); experiment: MTT cytotoxicity assay; conditions: Homo sapiens, read-out: IC50 HeLa (Cervical cancer cell line)
Description: as §14, §15

E. faecalis VSE NCTC 775 = experiment: General MIC protocol, Gram positive panel; conditions: Enterococcus faecalis, NCTC775; VSE 775
Description: as §1, §2, §3, §4, §5, §6, §7, §8, §9, §10, §11, §12, §13

[2] = tested on: E. faecium VRE NCTC 12204; experiment: General MIC protocol, Gram positive panel
Description: as §1, §2, §3, §4, §5, §6, §7, §8, §9, §10, §11, §12, §13

[3] = tested on: methicillin sensitive S. aureus ATTC 9144 (NCTC 6571); experiment: General MIC protocol, Gram positive panel; conditions: Staphylococcus aureus, MSSA / NCTC 6571; MSSA 9144
Description: as §1, §2, §3, §4, §5, §6, §7, §8, §9, §10, §11, §12, §13

EMRSA-16 = experiment: General MIC protocol, Gram positive panel
Description: as §1, §2, §3, §4, §5, §6, §7, §8, §9, §10, §11, §12, §13

EMRSA-15 = experiment: General MIC protocol, Gram positive panel
Description: as §1, §2, §3, §4, §5, §6, §7, §8, §9, §10, §11, §12, §13

[4] = tested on: E. faecalis VRE NCTC 12201; experiment: General MIC protocol, Gram positive panel
Description: as §1, §2, §3, §4, §5, §6, §7, §8, §9, §10, §11, §12, §13

[5] = WI-38, MTT, 24 h continuous exposure, highest concentration tested 20 μM

Compound | MIC (A. baumannii AYE) [µg/mL] | MIC (K. pneumonia M6) [µg/mL] | MIC (A. baumannii NCTC 17978) [µg/mL] | MIC (K. pneumonia NCTC 13368) [µg/mL] | MIC (P. aeruginosa NCTC 13437) [µg/mL] | MIC (P. aeruginosa PA01) [µg/mL] | IC50 (WI38 (Healthy cell line); WI-38, 24 h) [µM] | IC50 ([1]; 24 h) [µM] | MIC (E. faecalis VSE NCTC 775) [µg/mL] | MIC [2] [µg/mL] | MIC [3] [µg/mL] | MIC (EMRSA-16) [µg/mL] | MIC (EMRSA-15) [µg/mL] | MIC [4] [µg/mL] | IC50 (WI38 (Healthy cell line); [5]) [µM] | IC50 ([1]; MTT, 24 h continuous exposure) [µM]
COc1cc2c(cc1OCCCC(=O)Nc1cc(C(=O)Nc3ccc4oc(C(=O)N5CCOCC5)cc4c3)n(C)c1)N=C[C@@H]1CCCN1C2=O [PP-A147, (S)-4-(4-((7-methoxy-5-oxo-2,3,5,11a-tetrahydro-1H-benzo[e]pyrrolo[1,2-a][1,4]diazepin-8-yl)oxy)butanamido)-1-methyl-N-(2-(morpholine-4-carbonyl)benzofuran-5-yl)-1H-pyrrole-2-carboxamide] | 8 (≈ 11.7 µM) | 0.5 to 1 (≈ 0.732 to 1.46 µM) | 8 (≈ 11.7 µM) | 32 to 64 (≈ 46.9 to 93.7 µM) | 64 (≈ 93.7 µM) | > 128 | > 20 | > 20 | < 0.125 | < 0.125 | < 0.125 | 0.25 (≈ 0.366 µM) | < 0.125 | < 0.125 |  | 
COc1cc2c(cc1OCCCC(=O)Nc1cc(C(=O)Nc3ccc4oc(C(=O)N(C)C)cc4c3)n(C)c1)N=C[C@@H]1CCCN1C2=O [PP-A159, (S)—N-(2-(dimethylcarbamoyl)benzofuran-5-yl)-4-(4-((7-methoxy-5-oxo-2,3,5,11a-tetrahydro-1H-benzo[e]pyrrolo[1,2-a][1,4]-diazepin-8-yl)oxy)butanamido)-1-methyl-1H-pyrrole-2-carboxamide] | 4 (≈ 6.24 µM) | 0.5 (≈ 0.78 µM) | 4 (≈ 6.24 µM) | 16 (≈ 25 µM) | 32 to 64 (≈ 49.9 to 99.9 µM) | 128 (≈ 200 µM) |  |  | < 0.125 | < 0.125 | < 0.125 | < 0.125 | < 0.125 | 0.5 (≈ 0.78 µM) | > 20 | 18.5
CCOC(=O)c1nc(NC(=O)c2cc3cc(NC(=O)c4cc(NC(=O)CCCOc5cc6c(cc5OC)C(=O)N5CCC[C@H]5C=N6)cn4C)ccc3s2)cn1C [PP-B14, reference compound] | 64 (≈ 82 µM) | 128 (≈ 164 µM) | 64 (≈ 82 µM) | 128 (≈ 164 µM) | 128 (≈ 164 µM) | > 128 |  |  | < 0.125 | < 0.125 | < 0.125 | 1 (≈ 1.28 µM) | 0.5 (≈ 0.64 µM) | < 0.125 |  | 
COc1cc2c(cc1OCCCC(=O)Nc1cc(C(=O)Nc3ccc4sc(C(=O)N5CCSCC5)cc4c3)n(C)c1)N=C[C@@H]1CCCN1C2=O [PP-B15, (S)-4-(4-((7-methoxy-5-oxo-2,3,5,11a-tetrahydro-1H-benzo-[e]pyrrolo[1,2-a][1,4]diazepin-8-yl)oxy)butanamido)-1-methyl-N-(2-(thiomorpholine-4-carbonyl)benzo[b]thiophen-5-yl)-1H-pyrrole-2-carboxamide] | 2 (≈ 2.8 µM) | > 128 | 2 (≈ 2.8 µM) | 2 (≈ 2.8 µM) | 32 (≈ 44.8 µM) | 64 (≈ 89.5 µM) |  |  | < 0.125 | < 0.125 | < 0.125 | < 0.125 | < 0.125 | < 0.125 | > 20 | > 20
COc1cc2c(cc1OCCCC(=O)Nc1cc(C(=O)Nc3ccc4sc(C(=O)N5CCOCC5)cc4c3)n(C)c1)N=C[C@@H]1CCCN1C2=O [PP-B16, (S)-4-(4-((7-methoxy-5-oxo-2,3,5,11a-tetrahydro-1H-benzo[e]pyrrolo[1,2-a][1,4]diazepin-8-yl)oxy)butanamido)-1-methyl-N-(2-(morpholine-4-carbonyl)benzo[b]thiophen-5-yl)-1H-pyrrole-2-carboxamide] | 8 (≈ 11.4 µM) | 64 (≈ 91.6 µM) | 8 (≈ 11.4 µM) | 8 (≈ 11.4 µM) | 32 (≈ 45.8 µM) | 64 (≈ 91.6 µM) |  |  | < 0.125 | < 0.125 | < 0.125 | 0.5 (≈ 0.716 µM) | < 0.125 | < 0.125 | > 20 | > 20
COC(=O)c1cc(NC(=O)c2cc3cc(NC(=O)c4cc(NC(=O)CCCOc5cc6c(cc5OC)C(=O)N5CCC[C@H]5C=N6)cn4C)ccc3s2)cn1C [PP-B17, reference compound] | 32 (≈ 41.8 µM) | 128 (≈ 167 µM) | 8 (≈ 10.4 µM) | 128 (≈ 167 µM) | 64 (≈ 83.6 µM) | 128 (≈ 167 µM) |  |  | < 0.125 | < 0.125 | < 0.125 | 0.25 (≈ 0.326 µM) | < 0.125 | < 0.125 |  | 
COc1cc2c(cc1OCCCC(=O)Nc1cc(C(=O)Nc3ccc4sc(C(=O)N5CCCCC5)cc4c3)n(C)c1)N=C[C@@H]1CCCN1C2=O [PP-B22, (S)-4-(4-((7-methoxy-5-oxo-2,3,5,11a-tetrahydro-1H-benzo-[e]pyrrolo[1,2-a][1,4]diazepin-8-yl)oxy)butanamido)-1-methyl-N-(2-(piperidine-1-carbonyl)benzo[b]thiophen-5-yl)-1H-pyrrole-2-carboxamide] | 8 (≈ 11.5 µM) | 128 (≈ 184 µM) | 8 (≈ 11.5 µM) | 128 (≈ 184 µM) | 64 (≈ 91.8 µM) | 128 (≈ 184 µM) |  |  | 0.25 (≈ 0.359 µM) | < 0.125 | < 0.125 | 1 (≈ 1.44 µM) | 0.5 (≈ 0.718 µM) | < 0.125 | > 20 | > 20
COc1cc2c(cc1OCCCC(=O)Nc1cc(C(=O)Nc3ccc4oc(C(=O)N5CCCCC5)cc4c3)n(C)c1)N=C[C@@H]1CCCN1C2=O [PP-B26, (S)-4-(4-((7-methoxy-5-oxo-2,3,5,11a-tetrahydro-1H-benzo-[e]pyrrolo[1,2-a][1,4]diazepin-8-yl)oxy)butanamido)-1-methyl-N-(2-(piperidine-1-carbonyl)benzofuran-5-yl)-1H-pyrrole-2-carboxamide] | 2 (≈ 2.94 µM) | 8 (≈ 11.8 µM) | 2 (≈ 2.94 µM) | 64 (≈ 94 µM) | 32 (≈ 47 µM) | 128 (≈ 188 µM) |  |  | 0.25 (≈ 0.367 µM) | < 0.125 | < 0.125 | 0.5 (≈ 0.734 µM) | 0.25 (≈ 0.367 µM) | < 0.125 | > 20 | > 20
